“Also recorded” adds a separate entry of the source.
Experiments:
[1] = Solubility in ophthalmic eye drop (BSS, 0.5% CMC); assay type: physicochemical; conditions: 0.1% (5 mg/5 mL) in BSS with 0.5% CMC, pH 7.0
Procedure: Non-Limiting, Exemplary Findings Discussed within: • The NCE Compound 1 was formulated within an ophthalmic eye drop with BSS and 0.5% carboxymethylcellulose (CMC) at percentages of 0.1% (5 mg/5 ml) and lower with a pH of 7.0.
• The R-DOI HCl was formulated within an ophthalmic eye drop with BSS and 0.5% carboxymethylcellulose (CMC) at percentages of 0.1% (5 mg/5 mL) and lower with a pH of 7.0.

rabbits [2] = assay: Tear film production by Schirmer's Tear Flo Strips in rabbits; assay type: in vivo, rabbit
Procedure: Each eye of each rabbit was assessed for tear film production by Schirmer's Tear Flo Strips at a 30 second interval of analysis. Tear measures were evaluated by a digital caliper to determine mm of tears collected.
(§1) 3 days post treatment at the same time initial measures were made, IOP and tear film production were re-assessed to examine if effects were sustained post 1 treatment.
(§2) Effects of Compound 1 on Tear Production: Current IOP lowering glaucoma drugs eventually have effects on tear production resulting in dry eye conditions. Further, there are additional associations between dry eye and glaucoma, with co-incidence of the two conditions quite common. […] Selective 5-HT agonists/antagonists can reverse symptoms of dry eye-a very large ophthalmic market. The effects of Compound 1 on tear film production (see, for example, FIG. 6 panels A-D) were therefore assessed by a Schirmer's Tear Flo strip and measured using a digital micrometer caliper.
(§3) • Rabbits were assessed for clinically clear eyes by slit lamp ophthalmic scoring. All eyes of all rabbits were normal. • Each eye of each rabbit was then assessed for initial IOP by tonometer. • Each eye of each rabbit was assessed for tear film production by Schirmer's Tear Flo Strips at a 30 second interval of analysis. Tear measures were evaluated by a digital caliper to determine mm of tears collected. • Rabbits were sorted into two groups attempting to balance IOP numbers (one higher, one lower animal per group). • Following animals were treated with 50 μL of Control ophthalmic BSS/0.5% CMC or 0.01% R-DOI HCl in ophthalmic BSS/0.5% CMC. • Any apparent behavioral changes were continuously monitored over the next 2.5 hours. • IOP determinations were made at 30 minutes, 1 hour, 2 hours and 3 hours, 5 hours, 7 hours and 24 hours-eyes were examined closely for any adverse effects during these IOP measures. • 7 hours post treatment when IOP returned to control levels tear film production was assessed (see, for example, FIG. 9).
as §2, with “R-DOI” for “Compound 1”, “conditions” for “conditions quite”, “production” for “production (see, for example, FIG. 6 panels A-D)”

rabbits [3] = assay: Topical ocular dosing in rabbits: observation of CNS, systemic, ocular and behavioral effects, ocular tolerability; assay type: in vivo, rabbit; conditions: 0.01%
Procedure: Apparent Ocular Irritability • b. Induction of Inflammation • c. Reduction of Corneal Barrier Integrity • d. Dry Eye or Excessive Tearing • e. Induction of Neovascularization • f. Induction of Scleral Reddening
Parameters Assessed during 2 hour Observation Window (see, for example, FIG. 1):
Two studies were performed to determine at what dose between 0.01% and 0.1% were behavioral and/or systemic effects observed. 50 μL doses at 0.01%, 0.05%, and 0.075% per eye applied and assessments were made as indicated herein.
The application of most topical eye drops requires repeatedly dosing up to 9 times per day in order to maintain efficacy across the course of waking hours and have efficacious levels available during sleeping hours. The effects of repeated ocular dosing of R-DOI were assessed in a similar manner as described herein, with the exception that doses of 0.01% or 0.05% were applied repeatedly as outlined herein:
Animals from the acute dosing were continued through the repeated dosing study. Animals were dosed at the indicated concentration 2 times on day 1 and then dosed 4 times per day for 3 subsequent days. Doses were administered at 50 μl per eye into both eyes of the animal.
Rabbits were assessed for clinically clear eyes by slit lamp ophthalmic scoring. All eyes of all rabbits were normal.
Following balancing animals were treated with 50 μL of Control ophthalmic BSS/0.5% CMC or 0.01% Compound 1 in ophthalmic BSS/0.5% CMC.
Any behavioral changes were continuously monitored over the next 2.5 hours (FIG. 3).
We can determine if a single dose of the ocular composition of 0.01% R-DOI with 0.5% carboxymethylcellulose in ophthalmic BSS: • 1. Reproduced previous findings that R-DOI had IOP depressing effects. • 2. Produced any readily observable behavioral effects. • 3. Was tolerated by the eye without adverse ocular effects, including absence of: • a. Apparent Ocular Irritability • b. Induction of Inflammation • c. Dry Eye or Excessive Tearing • d. Induction of Scleral Reddening • 4. Reduced IOP • 5. Maintained Reduction in IOP • 6. Increased Tear Film Production
as §3

rabbits [4] = assay: Intraocular pressure (IOP) after topical ocular dosing in rabbits; assay type: in vivo, rabbit
Procedure: The IOP was assessed as a component of clinical outcomes for the animals in the studies described herein. The table below represents the effect of R-DOI on IOP 2 hours after dosing with the indicated concentration of R-DOI. Eyes were individually assessed and are indicated as IOP for the right (OD) or left (OS) eye.
Each eye of each rabbit was then assessed for initial IOP by tonometer.
IOP determinations were made at 30 minutes, 1 hour, 1.5 hours and 2.5 hours-eyes were examined closely for any adverse effects during these IOP measures.
as §1
The IOP was assessed via a TonoVet rebound Tonometer. The tables herein (see, for example, FIG. 4) represent the effect of Compound 1 on IOP at time intervals within the first 2.5 hours after dosing with 0.01% Compound 1 in BSS with 0.5% CMC. Eyes were individually assessed and are indicated as IOP for the right (OD) or left (OS) eye. 3 days post treatment eyes were reassessed for IOP changes to see if the effects of treatment lasted over a prolonged period.
as §3
The IOP was assessed via a TonoVet rebound Tonometer. The tables herein (see, for example, FIGS. 10-11) represents the effect of R-DOI on IOP at the defined time intervals Eyes were individually assessed and are indicated as IOP for the right (OD) or left (OS) eye.

C6 glioma cells = conditions: cocktail of TNF-α and INF-γ, read-out: IC50 for block of LPS and cytokine stimulated nitrite accumulation; cited from earlier work
Normal Human Fibroblasts = assay: TGF-β transformation of normal human fibroblasts to myofibroblasts; assay type: cell-based; conditions: TGF-β treated human fibroblasts
[5] = tested on: TGF-Induced SMAD-mediated signaling; assay: TGF-β induced SMAD-mediated signaling, dual luciferase reporters; assay type: cell-based
5-HT2A receptors = 5-HT2A receptors (Homo sapiens, UniProt P28223); conditions: cited from earlier work
Sequence of 5-HT2A receptors (P28223 whole entry): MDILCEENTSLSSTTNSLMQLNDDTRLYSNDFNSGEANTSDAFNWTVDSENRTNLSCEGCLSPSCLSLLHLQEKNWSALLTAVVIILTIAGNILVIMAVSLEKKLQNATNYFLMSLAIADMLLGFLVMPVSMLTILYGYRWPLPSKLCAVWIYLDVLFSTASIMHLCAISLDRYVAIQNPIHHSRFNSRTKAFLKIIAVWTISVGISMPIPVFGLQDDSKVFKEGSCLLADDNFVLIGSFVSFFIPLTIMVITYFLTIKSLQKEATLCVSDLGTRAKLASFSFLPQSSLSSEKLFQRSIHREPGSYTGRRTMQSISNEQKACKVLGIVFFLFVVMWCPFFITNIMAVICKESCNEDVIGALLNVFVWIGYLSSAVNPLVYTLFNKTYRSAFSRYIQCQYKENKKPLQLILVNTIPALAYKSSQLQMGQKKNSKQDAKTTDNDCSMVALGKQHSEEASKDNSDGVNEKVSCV

COc1cc(CC(C)C)c(OC)cc1CCN [Compound 1]
Solubility of the compound [1]: good with no remaining precipitates
average increase in tear film production (rabbits [2]; 0.01% single dose, 2.5 h post treatment): 3.4 mm
average increase of tear film (rabbits [2]; 0.01% single dose, 3 days post treatment): approximately 1.9 mm
tear production as measured by Schirmer's test (rabbits [2]; topical ocular dose): increased tear production; also recorded: significant increase in tear production
adverse events (ocular, systemic, behavioral or otherwise) (rabbits [3]; 50 μL per eye, both eyes, single dose): No readily apparent adverse events; also recorded: No observable changes; also recorded: no adverse or abnormal events observed
acute ocular toxicity, irritability or adverse ocular reactions (rabbits [3]; acute single dosing): did not exhibit any acute ocular toxicity, irritability or adverse ocular reactions; also recorded: did not display any signs of ocular irritability
period for which decreased intraocular pressure was sustained post administration (rabbits [4]; 0.01% single dose, non-diseased eye model): at least 3 days
IOP across the 2.5 hour observation window (rabbits [4]; 0.01% single dose, 30 minutes, 1 hour, 1.5 hours, 2.5 hours): decreased IOP at all points across the 2.5 hour observation window
Return to Baseline IOP (rabbits [4]; post single dose administration of 0.01%): approximately 12 days
effect on intraocular pressure (rabbits [4]; single topical ocular dose): decreased intraocular pressure with a single dose

COc1cc(CC(C)N)c(OC)cc1I (centres unmarked) [DOI, 2,5-Dimethoxy-4-iodoamphetamine]
IC50 (C6 glioma cells): 8 ± 3 nM
Transformation into Myofibroblasts (Normal Human Fibroblasts): Prevents Transformation into Myofibroblasts
TGF-Induced SMAD-mediated signaling [5]: Reduces TGF-Induced SMAD-mediated signaling

O=C(c1ccc(F)cc1)C1CCN(CCn2c(=O)[nH]c3ccccc3c2=O)CC1 [ketanserin]
selectivity for 5-HT2A receptors over 5-HT2C receptors (5-HT2A receptors): ~ 20 fold

— patent publication US20260240792A1, “COMPOSITIONS FOR TREATING 5-HT2 CONDITIONS AND METHODS OF USING THE SAME” (Board of Supervisors of Louisiana State University and …, priority 2022, published 2026)
